Measured values from ChEMBL document CHEMBL5365404, “Synthesis and biological evaluation of 2-(Tetrazol-5-yl)sulfonylacetamides as inhibitors of Mycobacterium tuberculosis and Mycobacterium marinum” (Bioorg Med Chem Lett, 2023).
Converted amounts (≈) assume the structure as drawn.

Tests used:
[1] = system: Mycobacterium tuberculosis; assay: Antitubercular activity against Mycobacterium tuberculosis assessed as reduction in microbial growth by broth dilution method; type: functional
Mycobacterium marinum = assay: Antitubercular activity against Mycobacterium marinum assessed as reduction in microbial growth by broth dilution method; type: functional
[2] = Lipophilicity, log D of the compound at pH 7.4; type: physicochemical; conditions: buffer
[3] = Solubility of the compound at pH 2.0; type: physicochemical; conditions: buffer
[4] = Solubility of the compound at pH 6.5; type: physicochemical; conditions: buffer
[5] = Half life in mouse liver microsomes; type: ADME, Microsome
[6] = Intrinsic clearance in mouse liver microsomes; type: ADME, Microsome; conditions: read-out: CLH

Q: Which results are given for `Cn1nnnc1SCC(=O)N1CCCCC1`?
A: MIC90 [1]: > 100 µg/mL; MIC90 (Mycobacterium marinum): > 100 µg/mL

Q: Which results are given for `Cn1nnnc1S(=O)(=O)CC(=O)NC1CCCCC1`?
A: MIC90 [1]: 6.25 µg/mL; MIC90 (Mycobacterium marinum): 12.5 µg/mL

Q: For `CC1CCN(C(=O)CSc2nnnn2-c2ccccc2)CC1`, which MIC90 [1] is on record?
A: Its MIC90 is greater than 50 µg/mL.

Q: And the MIC90 (Mycobacterium marinum)?
A: The MIC90 was greater than 100 µg/mL.

Q: With `O=C(CS(=O)(=O)c1nnnn1-c1ccccc1)N1CCCC1` as the compound, how does the MIC90 [1] read?
A: Its MIC90 is 20 µg/mL.

Q: What about the MIC90 (Mycobacterium marinum) of the same compound?
A: Its MIC90 is greater than 100 µg/mL.

Q: Which results are given for `O=C(CS(=O)(=O)c1nnc2ncccn12)N1CCCCC1`?
A: MIC90 [1]: > 100 µg/mL; MIC90 (Mycobacterium marinum): > 100 µg/mL

Q: Which MIC90 [1] does the source give for `O=C(CS(=O)(=O)c1nnnn1-c1ccccc1)N1CCCCC1` here?
A: The MIC90 was 10 µg/mL.

Q: What about the MIC90 (Mycobacterium marinum) of the same compound?
A: Its MIC90 is 100 µg/mL.

Q: Which MIC90 [1] does the source give for `CC1CCN(C(=O)CS(=O)(=O)c2nc(-c3ccc(Cl)cc3)n[nH]2)CC1` here?
A: The MIC90 was greater than 100 µg/mL.

Q: What about the MIC90 (Mycobacterium marinum) of the same compound?
A: The MIC90 was greater than 100 µg/mL.

Q: What does the source list for `CN(C(=O)CS(=O)(=O)c1nc(O)nn1C)c1ccccc1`?
A: MIC90 [1]: > 100 µg/mL; MIC90 (Mycobacterium marinum): > 100 µg/mL

Q: Which results are given for `CN(C(=O)CSc1nnnn1-c1ccccc1)c1ccccc1`?
A: MIC90 [1]: > 100 µg/mL; MIC90 (Mycobacterium marinum): > 100 µg/mL

Q: With `Cn1nnnc1S(=O)(=O)CC(=O)N1CCCCCC1` as the compound, how does the MIC90 [1] read?
A: The MIC90 was 1.25 µg/mL.

Q: What about the MIC90 (Mycobacterium marinum) of the same compound?
A: The MIC90 was 100 µg/mL.

Q: Which results are given for `O=C(CSc1nnnn1-c1ccccc1)N1CCCC1`?
A: MIC90 [1]: 50 µg/mL; MIC90 (Mycobacterium marinum): 100 µg/mL

Q: With `O=C(CS(=O)(=O)c1nnnn1-c1ccccc1)N1CCN(c2ccccc2)CC1` as the compound, how does the MIC90 [1] read?
A: The MIC90 was 10 µg/mL.

Q: What about the MIC90 (Mycobacterium marinum) of the same compound?
A: Its MIC90 is 100 µg/mL.

Q: Which MIC90 [1] does the source give for `Cn1nnnc1S(=O)(=O)CC(=O)N1CCCC1` here?
A: The MIC90 was 6.25 µg/mL.

Q: And the MIC90 (Mycobacterium marinum)?
A: The MIC90 was 12.5 µg/mL.

Q: Which MIC90 [1] does the source give for `CN(C(=O)CS(=O)(=O)c1nnnn1-c1ccccc1)c1ccccc1` here?
A: The MIC90 was 10 µg/mL.

Q: What about the MIC90 (Mycobacterium marinum) of the same compound?
A: Its MIC90 is 50 µg/mL.

Q: With `COc1cccc(-c2n[nH]c(S(=O)(=O)CC(=O)N3CCC(C)CC3)n2)c1` as the compound, how does the MIC90 [1] read?
A: The MIC90 was greater than 100 µg/mL.

Q: What about the MIC90 (Mycobacterium marinum) of the same compound?
A: Its MIC90 is greater than 100 µg/mL.

Q: For `CCN(CC)C(=O)CS(=O)(=O)c1nnnn1C`, which MIC90 [1] is on record?
A: Its MIC90 is 10 µg/mL.

Q: And the MIC90 (Mycobacterium marinum)?
A: The MIC90 was 100 µg/mL.

Q: Which MIC90 [1] does the source give for `CN(C(=O)C[S+]([O-])c1nnnn1-c1ccccc1)c1ccccc1` (centres undefined) here?
A: Its MIC90 is 50 µg/mL.

Q: And the MIC90 (Mycobacterium marinum)?
A: The MIC90 was 100 µg/mL.

Q: Which MIC90 [1] does the source give for `O=C(CS(=O)(=O)c1nnnn1-c1ccccc1)NC1CCCCC1` here?
A: Its MIC90 is 100 µg/mL.

Q: What about the MIC90 (Mycobacterium marinum) of the same compound?
A: Its MIC90 is 100 µg/mL.

Q: Which results are given for `O=C(CS(=O)(=O)c1nnc2ncccn12)N1CCN(c2ccccc2)CC1`?
A: MIC90 [1]: > 100 µg/mL; MIC90 (Mycobacterium marinum): > 100 µg/mL

Q: With `CC1CCCCN1C(=O)CS(=O)(=O)c1nnnn1C` (centres undefined) as the compound, how does the MIC90 [1] read?
A: The MIC90 was 3.13 µg/mL.

Q: And the MIC90 (Mycobacterium marinum)?
A: The MIC90 was 25 µg/mL.

Q: For `CC1CCN(C(=O)C[S+]([O-])c2nnnn2-c2ccccc2)CC1` (centres undefined), which MIC90 [1] is on record?
A: Its MIC90 is 25 µg/mL.

Q: And the MIC90 (Mycobacterium marinum)?
A: Its MIC90 is 100 µg/mL.

Q: Which MIC90 [1] does the source give for `Cn1nnnc1S(=O)(=O)CC(=O)N1CCN(c2ccccc2)CC1` here?
A: The MIC90 was 1.25 µg/mL.

Q: And the MIC90 (Mycobacterium marinum)?
A: Its MIC90 is 10 µg/mL.

Q: And the logD [2]?
A: Its logD is 4.8.

Q: What about the solubility [3] of the same compound?
A: The solubility was 50 mg/mL (≈ 143 mM).

Q: What about the solubility [4] of the same compound?
A: Its solubility is 25 mg/mL (≈ 71.3 mM).

Q: And the half-life [5]?
A: The half-life was 0.333 h.

Q: What about the microsomal CLint [6] of the same compound?
A: The microsomal CLint was 85 µL/min/mg.

Q: Which results are given for `Cn1nnnc1S(=O)(=O)CC(=O)N1CCCCC1`?
A: MIC90 [1]: 1.56 µg/mL; MIC90 (Mycobacterium marinum): 12.5 µg/mL; logD [2]: 1.6; solubility [3]: > 100 mg/mL; solubility [4]: > 100 mg/mL; half-life [5]: 2.93 h; microsomal CLint [6]: 10 µL/min/mg

Q: Which MIC90 [1] does the source give for `CC1CCN(C(=O)CS(=O)(=O)c2nnnn2-c2ccccc2)CC1` here?
A: Its MIC90 is 12.5 µg/mL.

Q: And the MIC90 (Mycobacterium marinum)?
A: The MIC90 was 100 µg/mL.

Q: Which MIC90 [1] does the source give for `CN(C(=O)CS(=O)(=O)c1nnnn1C)c1ccccc1` here?
A: The MIC90 was 2.5 µg/mL.

Q: What about the MIC90 (Mycobacterium marinum) of the same compound?
A: Its MIC90 is 100 µg/mL.

Q: With `CCN(CC)C(=O)CS(=O)(=O)c1nnnn1-c1ccccc1` as the compound, how does the MIC90 [1] read?
A: Its MIC90 is 20 µg/mL.

Q: And the MIC90 (Mycobacterium marinum)?
A: Its MIC90 is greater than 100 µg/mL.

Q: With `CCC1CCCCN1C(=O)CS(=O)(=O)c1nnnn1C` (centres undefined) as the compound, how does the MIC90 [1] read?
A: The MIC90 was 2.5 µg/mL.

Q: And the MIC90 (Mycobacterium marinum)?
A: The MIC90 was 100 µg/mL.

Q: For `Cn1nnnc1SCC(=O)N1CCCC1`, which MIC90 [1] is on record?
A: The MIC90 was greater than 100 µg/mL.

Q: What about the MIC90 (Mycobacterium marinum) of the same compound?
A: The MIC90 was greater than 100 µg/mL.

Q: Which MIC90 [1] does the source give for `CC1CCN(C(=O)CS(=O)(=O)c2nnnn2C)CC1` here?
A: Its MIC90 is 1.56 µg/mL.

Q: And the MIC90 (Mycobacterium marinum)?
A: Its MIC90 is 12.5 µg/mL.

Q: With `CC1CCCCN1C(=O)CS(=O)(=O)c1nnnn1-c1ccccc1` (centres undefined) as the compound, how does the MIC90 [1] read?
A: Its MIC90 is 12.5 µg/mL.

Q: And the MIC90 (Mycobacterium marinum)?
A: The MIC90 was 100 µg/mL.

Q: Which MIC90 [1] does the source give for `CC1CCCN(C(=O)CS(=O)(=O)c2nnnn2C)C1` (centres undefined) here?
A: The MIC90 was 6.25 µg/mL.

Q: What about the MIC90 (Mycobacterium marinum) of the same compound?
A: The MIC90 was 25 µg/mL.

Q: With `CO[C@H]1/C=C/O[C@@]2(C)Oc3c(C)c(O)c4c(O)c(c(/C=N/N5CCN(C)CC5)c(O)c4c3C2=O)NC(=O)/C(C)=C\C=C\[C@H](C)[C@H](O)[C@@H](C)[C@@H](O)[C@@H](C)[C@H](OC(C)=O)[C@@H]1C` [RIFAMPIN] as the compound, how does the MIC90 [1] read?
A: The MIC90 was 0.06 µg/mL.

Q: What about the MIC90 (Mycobacterium marinum) of the same compound?
A: Its MIC90 is 0.2 µg/mL.
